In ChEMBL document CHEMBL1921701, “Synthesis of GSK3β mimetic inhibitors of Akt featuring a novel extended dipeptide surrogate” (Bioorg Med Chem Lett, 2011) one finds inhibition, Activity and IC50 data, which are given here for 8 compounds.

Assay [1] addresses T1, RAC-alpha serine/threonine-protein kinase (Homo sapiens, UniProt P31749). Description: Inhibition of His-tagged ATP-binding domain of AKT1 assessed as GRPRTSSFAEG crosstide phosphorylation using [33P]ATP.
Assay [2] deals with T1, RAC-alpha serine/threonine-protein kinase. Briefly: Inhibition of His-tagged ATP-binding domain of AKT1 assessed as residual activity by measuring GRPRTSSFAEG crosstide phosphorylation at 50 uM using [33P]ATP.

The term IC50 denotes the concentration that inhibits the measured activity by half.

T1 sequence (P31749 whole entry, the tested form may be a part): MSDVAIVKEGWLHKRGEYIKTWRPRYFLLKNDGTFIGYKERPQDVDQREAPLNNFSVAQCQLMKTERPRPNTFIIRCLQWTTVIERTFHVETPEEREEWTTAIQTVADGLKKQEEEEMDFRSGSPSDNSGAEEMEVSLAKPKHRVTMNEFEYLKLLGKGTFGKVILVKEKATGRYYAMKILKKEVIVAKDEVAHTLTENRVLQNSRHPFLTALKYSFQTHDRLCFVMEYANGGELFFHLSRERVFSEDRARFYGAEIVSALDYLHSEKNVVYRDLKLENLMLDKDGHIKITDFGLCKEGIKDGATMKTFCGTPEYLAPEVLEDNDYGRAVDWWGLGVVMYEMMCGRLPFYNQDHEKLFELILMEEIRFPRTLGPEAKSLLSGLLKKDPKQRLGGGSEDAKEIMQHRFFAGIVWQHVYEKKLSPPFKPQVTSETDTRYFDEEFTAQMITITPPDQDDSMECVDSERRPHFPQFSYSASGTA

Regarding `CC(C)[C@H](NC(=O)[C@@H]1CC[C@H]2[C@H](NC(=O)CCCCNC(=N)N)COC(=O)N12)C(=O)NC(Cc1ccccc1)C(=O)NCc1ccccc1` (mixture of isomers), the inhibition entry in assay [1] was “Dose-dependent effect”. Besides, the Activity in assay [2] was 21.1%.
On to `CC(C)[C@H](NC(=O)[C@@H]1CC[C@H]2[C@H](NC(=O)[C@H](CCCNC(=N)N)NC(=O)c3ccccc3)COC(=O)N12)C(=O)NC(Cc1ccccc1)C(=O)NCc1ccccc1` (mixture of isomers), for which, in assay [1], the half-maximal inhibitory concentration (IC50) came out at 16.3 µM and the inhibition entry was “Dose-dependent effect”. Further, in assay [2], the Activity amounted to 14.6%.
For the compound `CC(C)[C@H](NC(=O)[C@@H]1CC[C@H]2[C@H](NC(=O)CCCCN=C(N)N)COC(=O)N12)C(=O)NC(Cc1ccccc1)C(=O)NCc1ccccc1` (mixture of isomers), the IC50 in assay [1] came to 40.2 µM.
As to `CC(C)[C@H](NC(=O)[C@@H]1CC[C@H]2[C@H](NC(=O)[C@H](CCCNC(=N)N)NC(=O)OCc3ccccc3)COC(=O)N12)C(=O)NC(Cc1ccccc1)C(=O)NCc1ccccc1` (mixture of isomers), the inhibition result in assay [1] was “Dose-dependent effect”. The Activity in assay [2] amounted to 2.2%.
For the compound `CC(C)[C@H](NC(=O)[C@@H]1CC[C@H]2[C@H](NC(=O)CNC(=N)N)COC(=O)N12)C(=O)NC(Cc1ccccc1)C(=O)NCc1ccccc1` (mixture of isomers), the Activity in assay [2] stood at 89.4%.
Turning to `CC(C)[C@H](NC(=O)[C@@H]1CC[C@H]2[C@H](NC(=O)[C@H](CCCN=C(N)N)NC(=O)OCc3ccccc3)COC(=O)N12)C(=O)NC(Cc1ccccc1)C(=O)NCc1ccccc1` (mixture of isomers), the IC50 in assay [1] worked out at 3.1 µM.
For the compound `CC(C)[C@H](NC(=O)[C@@H]1CC[C@H]2[C@H](NC(=O)[C@H](CCCNC(=N)N)NC(=O)Cc3ccccc3)COC(=O)N12)C(=O)NC(Cc1ccccc1)C(=O)NCc1ccccc1` (mixture of isomers), in assay [1], the inhibition entry was “Dose-dependent effect”. Moreover, the Activity in assay [2] came to 16.8%.
Regarding `CC(C)[C@H](NC(=O)[C@@H]1CC[C@H]2[C@H](NC(=O)[C@H](CCCN=C(N)N)NC(=O)Cc3ccccc3)COC(=O)N12)C(=O)NC(Cc1ccccc1)C(=O)NCc1ccccc1` (mixture of isomers), the IC50 in assay [1] was found to be 15 µM.
